Data taken from PubChem BioAssay (NCI).
Several values for one entry are separate records, joined by “and”; a condition that tells them apart may be missing. Identical values can stand only once.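 How tested: cells in 96-well plates exposed to compound for 48 hours at five concentrations. GI50 marks 50% less growth. TGI denotes the concentration required for complete inhibition of growth.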

Experiments:
Assay in all cases: inhibition of tumour cell growth, NCI panel, 48 h
HL-60(TB) leukemia = test system: HL-60(TB) leukemia
IGROV1 ovarian = test system: IGROV1 ovarian
SF-539 CNS = test system: SF-539 CNS
MOLT-4 leukemia = test system: MOLT-4 leukemia
NCI-H226 lung = test system: NCI-H226 lung
ACHN renal = test system: ACHN renal
RPMI-8226 leukemia = test system: RPMI-8226 leukemia
SNB-75 CNS = test system: SNB-75 CNS

CCCCn1cc(C(=O)O)c(=O)c2c3sccc3ccc21
TGI (HL-60(TB) leukemia): > 100 µM | TGI (IGROV1 ovarian): > 100 µM | TGI (SF-539 CNS): > 100 µM | TGI (MOLT-4 leukemia): > 100 µM | TGI (NCI-H226 lung): > 100 µM | TGI (ACHN renal): > 100 µM | TGI (RPMI-8226 leukemia): > 100 µM | TGI (SNB-75 CNS): > 100 µM

CC1(C)OC[C@@H](/C=C\CCO[Si](c2ccccc2)(c2ccccc2)C(C)(C)C)N1C(=O)c1ccccc1
TGI (HL-60(TB) leukemia): 14.6 µM | TGI (IGROV1 ovarian): > 100 µM | TGI (SF-539 CNS): 45.4 µM | TGI (MOLT-4 leukemia): 47.1 µM | TGI (NCI-H226 lung): 25.5 µM | TGI (ACHN renal): > 100 µM | TGI (RPMI-8226 leukemia): 23.2 µM | TGI (SNB-75 CNS): > 100 µM

O=C(Nc1cccc2nsnc12)c1cc2c(cc1Cl)Sc1nccn1S2(=O)=O
TGI (HL-60(TB) leukemia): 3.72 µM | TGI (IGROV1 ovarian): 46.6 µM | TGI (SF-539 CNS): 10 µM | TGI (MOLT-4 leukemia): > 30.7 µM | TGI (NCI-H226 lung): 55.4 µM | TGI (ACHN renal): 35.9 µM | TGI (RPMI-8226 leukemia): 4.96 µM | TGI (SNB-75 CNS): 35.9 µM

CCCCCCCCCCCCOC1C(COCCN2CCCC2)OC2OC(C)(C)OC21 (configuration not stated)
TGI (IGROV1 ovarian): 3.1 µM | TGI (SF-539 CNS): 3.17 µM | TGI (MOLT-4 leukemia): 10.4 µM | TGI (NCI-H226 lung): 7.62 µM | TGI (ACHN renal): 11.2 µM | TGI (RPMI-8226 leukemia): 12.1 µM | TGI (SNB-75 CNS): 3.75 µM

c1ccc2c(c1)CC1c3[nH]c4ccccc4c3CCN21 (configuration not stated)
TGI (HL-60(TB) leukemia): > 10 µM | TGI (IGROV1 ovarian): > 10 µM | TGI (SF-539 CNS): > 10 µM | TGI (MOLT-4 leukemia): > 10 µM | TGI (NCI-H226 lung): > 10 µM | TGI (ACHN renal): > 10 µM | TGI (RPMI-8226 leukemia): > 10 µM | TGI (SNB-75 CNS): > 10 µM

Cc1cc(S(=O)(=O)Nc2n[nH]c(Nc3ccccc3)n2)c(S)cc1Cl
TGI (HL-60(TB) leukemia): > 10 µM | TGI (IGROV1 ovarian): > 10 µM | TGI (SF-539 CNS): > 10 µM | TGI (MOLT-4 leukemia): > 10 µM | TGI (NCI-H226 lung): > 10 µM | TGI (ACHN renal): > 10 µM | TGI (RPMI-8226 leukemia): > 10 µM | TGI (SNB-75 CNS): > 10 µM

COc1ccc(Cn2nc(OCc3ccccn3)c3cc([N+](=O)[O-])ccc32)cc1
TGI (HL-60(TB) leukemia): > 100 µM | TGI (IGROV1 ovarian): > 100 µM | TGI (SF-539 CNS): > 100 µM | TGI (MOLT-4 leukemia): > 100 µM | TGI (NCI-H226 lung): > 100 µM | TGI (ACHN renal): > 100 µM | TGI (RPMI-8226 leukemia): > 100 µM

O=C1c2cc3c(cc2CC12Cc1cc4c(cc1C2)CCC4)CCC3
TGI (HL-60(TB) leukemia): > 100 µM | TGI (IGROV1 ovarian): > 100 µM | TGI (SF-539 CNS): > 100 µM | TGI (MOLT-4 leukemia): > 100 µM | TGI (ACHN renal): > 100 µM | TGI (RPMI-8226 leukemia): > 100 µM | TGI (SNB-75 CNS): > 100 µM

COc1cc2c3c(n(CCCNCCO)c(=O)c2cc1OC)-c1cc2c(cc1C3=O)OCO2
GI50 (HL-60(TB) leukemia): < 0.0277 µM | TGI (IGROV1 ovarian): 2.38 µM | TGI (SF-539 CNS): 1.36 µM | TGI (MOLT-4 leukemia): 0.0279 µM | GI50 (NCI-H226 lung): 0.0474 µM | TGI (NCI-H226 lung): 1.46 µM and 0.269 µM | TGI (ACHN renal): 0.176 µM and 0.369 µM | GI50 (RPMI-8226 leukemia): 0.173 µM | TGI (RPMI-8226 leukemia): > 100 µM

c1ccc2c3c(ccc2c1)CSCc1ccc2ccccc2c1-3
TGI (IGROV1 ovarian): > 100 µM | TGI (SF-539 CNS): > 100 µM | TGI (MOLT-4 leukemia): > 100 µM | TGI (ACHN renal): > 100 µM | TGI (RPMI-8226 leukemia): > 100 µM | TGI (SNB-75 CNS): > 100 µM

O=c1c(Cc2ccc(Cl)cc2)nnc2sc(-c3ccc([N+](=O)[O-])cc3)nn12
TGI (HL-60(TB) leukemia): 49.6 µM | TGI (IGROV1 ovarian): > 100 µM | TGI (MOLT-4 leukemia): > 100 µM | TGI (ACHN renal): 87.3 µM | TGI (RPMI-8226 leukemia): 89.9 µM

O=C1C/C(=C\O)C(=O)c2ccccc2N1
TGI (HL-60(TB) leukemia): > 100 µM | TGI (IGROV1 ovarian): > 100 µM | TGI (SF-539 CNS): > 100 µM | TGI (MOLT-4 leukemia): > 100 µM | TGI (NCI-H226 lung): > 100 µM | TGI (ACHN renal): > 100 µM

Cc1ccc2ccccc2c1CC1S(=O)(=O)OCCOS1(=O)=O
TGI (HL-60(TB) leukemia): 5.38 µM | TGI (MOLT-4 leukemia): 27.5 µM | TGI (ACHN renal): 28.8 µM | TGI (RPMI-8226 leukemia): 32.3 µM

C/C(=N\N=C(N)N)c1c(C(=O)OCCCCCCOC(=O)c2nc3sccn3c2/C(C)=N/N=C(N)N)nc2sccn12
TGI (HL-60(TB) leukemia): > 100 µM | TGI (IGROV1 ovarian): > 100 µM | TGI (MOLT-4 leukemia): > 100 µM | TGI (NCI-H226 lung): > 100 µM | TGI (ACHN renal): > 100 µM | TGI (RPMI-8226 leukemia): > 100 µM | TGI (SNB-75 CNS): > 100 µM

Cc1ccc(Nc2nc(=O)[nH]c(=O)[nH]2)cc1N
TGI (HL-60(TB) leukemia): > 100 µM | TGI (IGROV1 ovarian): > 100 µM | TGI (SF-539 CNS): > 100 µM | TGI (NCI-H226 lung): > 100 µM | TGI (ACHN renal): > 100 µM | TGI (RPMI-8226 leukemia): > 100 µM | TGI (SNB-75 CNS): > 100 µM

[N-]=[N+]=NC1(c2ccccc2)C(=O)Nc2ccccc2C1=O (configuration not stated)
TGI (HL-60(TB) leukemia): > 100 µM | TGI (IGROV1 ovarian): > 100 µM | TGI (SF-539 CNS): > 100 µM | TGI (MOLT-4 leukemia): 76.6 µM | TGI (ACHN renal): > 100 µM | TGI (RPMI-8226 leukemia): > 100 µM | TGI (SNB-75 CNS): > 100 µM

CC1CN=C(c2cccc(OCc3ccc(COc4cccc(C5=NCC(C)N5)c4)cc3)c2)N1 (configuration not stated)
TGI (HL-60(TB) leukemia): > 100 µM | TGI (IGROV1 ovarian): > 100 µM | TGI (SF-539 CNS): 98.7 µM | TGI (MOLT-4 leukemia): 57.3 µM | TGI (ACHN renal): > 100 µM | TGI (RPMI-8226 leukemia): 45.4 µM | TGI (SNB-75 CNS): 91.4 µM

O=C1c2cc(Cl)ccc2-n2c(noc2=O)C2CSCN12 (configuration not stated)
TGI (IGROV1 ovarian): > 100 µM | TGI (MOLT-4 leukemia): > 100 µM | TGI (NCI-H226 lung): > 100 µM | TGI (ACHN renal): > 100 µM | TGI (RPMI-8226 leukemia): > 100 µM | TGI (SNB-75 CNS): > 100 µM

CC1=NNC(N)=N/C1=C/C(Sc1ccc(Cl)cc1)c1cccs1 (configuration not stated)
TGI (IGROV1 ovarian): 29 µM | TGI (MOLT-4 leukemia): > 100 µM | TGI (NCI-H226 lung): 32.6 µM | TGI (ACHN renal): 42.5 µM | TGI (RPMI-8226 leukemia): 64.3 µM

Oc1c2cccc1Cc1cccc3c1OCCOCCOCCOCCOc1c(cccc1Cc1cccc(c1O)C3)C2
TGI (IGROV1 ovarian): > 100 µM | TGI (SF-539 CNS): > 100 µM | TGI (MOLT-4 leukemia): > 100 µM | TGI (NCI-H226 lung): 81 µM | TGI (ACHN renal): > 100 µM | TGI (RPMI-8226 leukemia): > 100 µM | TGI (SNB-75 CNS): 87.3 µM

O=C1/C(=C/c2ccccc2S)N=C(c2ccccc2)N1c1ccc2c(c1)Sc1cc(N3C(=O)/C(=C/c4ccccc4S)N=C3c3ccccc3)ccc1N2
TGI (IGROV1 ovarian): 29.1 µM | TGI (SF-539 CNS): 24.1 µM | TGI (MOLT-4 leukemia): 39.7 µM | TGI (ACHN renal): 33.5 µM | TGI (RPMI-8226 leukemia): 46.8 µM | TGI (SNB-75 CNS): 38.4 µM

CCCCCCCCCCCCCCCCOCC(CC(F)(F)P(=O)(O)O)OC(C)=O (configuration not stated)
TGI (IGROV1 ovarian): > 50 µM | TGI (MOLT-4 leukemia): > 50 µM | TGI (NCI-H226 lung): > 50 µM | TGI (ACHN renal): > 50 µM | TGI (RPMI-8226 leukemia): > 50 µM | TGI (SNB-75 CNS): > 50 µM

COc1ccc(N2C(=O)C3c4[nH]c5ccc(C)cc5c4C4CCC(C(C)C)CC4C3C2=O)cc1 (configuration not stated)
TGI (IGROV1 ovarian): > 100 µM | TGI (MOLT-4 leukemia): > 100 µM | TGI (NCI-H226 lung): > 100 µM | TGI (ACHN renal): > 100 µM | TGI (RPMI-8226 leukemia): > 100 µM | TGI (SNB-75 CNS): 74.2 µM

CSc1c(C(C)=O)c(O)n(-c2ccc(Cl)cc2)c(=O)c1C#N
TGI (HL-60(TB) leukemia): 46.9 µM | TGI (SF-539 CNS): > 100 µM | TGI (MOLT-4 leukemia): 55.3 µM | TGI (NCI-H226 lung): > 100 µM | TGI (RPMI-8226 leukemia): 99.2 µM | TGI (SNB-75 CNS): > 100 µM

Cc1ccc(-c2cc(-c3ccc(Cl)cc3)nc(/N=C3\C(=O)N(CN4CCCCC4)c4ccc(Cl)cc43)n2)cc1
TGI (HL-60(TB) leukemia): 62.4 µM | TGI (IGROV1 ovarian): 34.2 µM | TGI (SF-539 CNS): 61.5 µM | TGI (MOLT-4 leukemia): 63.4 µM | TGI (NCI-H226 lung): > 100 µM | TGI (ACHN renal): 92.5 µM | TGI (SNB-75 CNS): > 100 µM

O=C(C[C@@H]1NCCC[C@H]1O)Cn1cnc2cc(Br)c(Cl)cc2c1=O
TGI (IGROV1 ovarian): 0.158 µM | TGI (SF-539 CNS): 0.347 µM | TGI (MOLT-4 leukemia): > 100 µM | TGI (NCI-H226 lung): 0.0473 µM | TGI (ACHN renal): 1.21 µM | TGI (RPMI-8226 leukemia): 0.128 µM | TGI (SNB-75 CNS): 0.338 µM

O=[N+]([O-])c1ccc2nc3ccc([N+](=O)[O-])cn3c2c1
TGI (HL-60(TB) leukemia): > 100 µM | TGI (IGROV1 ovarian): > 100 µM | TGI (SF-539 CNS): > 100 µM | TGI (MOLT-4 leukemia): > 100 µM | TGI (NCI-H226 lung): > 100 µM | TGI (ACHN renal): > 100 µM | TGI (SNB-75 CNS): > 100 µM
